Reference: patent publication US9150495B2, “Polyamine transporter selective compounds as anti cancer agents” (University of Central Florida Research Foundation, Inc., priority 2007, dated 2015)
Where a name gives a salt, the structure may show the parent alone.

How the values were obtained:
[1] = molecular target: polyamine transporter (PAT); experiment: PAT binding affinity, competition with radiolabeled spermidine in L1210; design: species or system mouse; details: L1210 cells
Procedure: “Ki value” reflects the affinity of the drug architecture for the polyamine transporter. The lower the value of the Ki, the higher the affinity of the drug for the polyamine transporter.
(§1) Cytotoxicity experiments were also performed in murine leukemia cells (L1210, Table 3) with and without the presence of difluoromethylornithine (DFMO), a known inhibitor of ornithine decarboxylase (the enzyme responsible for polyamine biosynthesis). Typically, when one blocks the ability of cells to synthesize polyamines, the cells respond by increasing their import of extracellular polyamines via PAT. Therefore, if our drugs are PAT-selective we should see a lowering of their respective IC50 values in the presence of DFMO, a molecule which facilitates the drug's import. […] Ki values indicate the binding affinity of the compounds for the PAT. Using competition experiments with radiolabeled spermidine, we were able to rank the binding affinity of the compounds for the PAT. Low Ki values mean the compound has a high binding affinity for the PAT.

[2] = test system: CHO cells; experiment: CHO wild type cytotoxicity (active polyamine transport); type: cell-based, Chinese hamster; details: for IC50: Cricetulus griseus, CHO wild type cells, active PAT; for CHOMG/CHO IC50 Ratio: IC50 in CHOMG / IC50 in CHO, PAT selectivity
Procedure: (§2) Chinese hamster ovary cells (CHO cells) have an active polyamine transporter. This cell type is very susceptible to drugs which use the polyamine transporter system to gain access to cells (i.e. polyamine conjugates). The PAT targeting selectivity was determined using a Chinese hamster cell assay. The CHO wild type cells have active polyamine transport activity and therefore should be very susceptible to the polyamine conjugate and give low IC50 values. […] The lower the value the more cytotoxic the drug is to that cell type. In contrast, the mutant CHO-MG cells, which have no PAT activity are not as sensitive to the polyamine conjugate (which is unable to enter these cells via the defective PAT) and give higher IC50 values. We express these as a ratio of the IC50 value in CHOMG/IC50 value in CHO. The higher the ratio the more PAT selective is the polyamine conjugate drug. […] Cytotoxicity experiments were also performed in murine leukemia cells (L1210, Table 3) with and without the presence of difluoromethylornithine (DFMO), a known inhibitor of ornithine decarboxylase (the enzyme responsible for polyamine biosynthesis). Typically, when one blocks the ability of cells to synthesize polyamines, the cells respond by increasing their import of extracellular polyamines via PAT. Therefore, if our drugs are PAT-selective we should see a lowering of their respective IC50 values in the presence of DFMO, a molecule which facilitates the drug's import. […] Ki values indicate the binding affinity of the compounds for the PAT. Using competition experiments with radiolabeled spermidine, we were able to rank the binding affinity of the compounds for the PAT. Low Ki values mean the compound has a high binding affinity for the PAT.

[3] = test system: CHO-MG cells; experiment: CHO-MG cytotoxicity (PAT-deficient mutant cells); type: cell-based, Chinese hamster; details: Cricetulus griseus, no PAT activity, read-out: CHOMG IC50
Procedure: as §2, with “which are chemically mutated to be” for “(CHO cells) have an active”, “transport-deficient will be referred to as the CHO-MG” for “transporter. This”, “line. […]” for “type is very susceptible to drugs which use the polyamine transporter system to gain access to cells (i.e. polyamine conjugates).”

[4] = test system: L1210 cells; experiment: L1210 cytotoxicity; type: cell-based; details: Mus musculus, without DFMO
Procedure: (§3) L1210 cells are mouse leukemia cells and are a standard well used benchmark for evaluating cytotoxicity of new drug systems, especially polyamine containing drugs.
as §1

[5] = molecular target: Topoisomerase IIalpha (Topo IIa) (Homo sapiens, UniProt P11388); experiment: Topo II kDNA decatenation assay (agarose gel); type: biochemical
Procedure: Thus the linear polyamine-anthracene conjugates herein disclosed (e.g., compound 4) were evaluated as Topo II inhibitors. A well established in vitro Topo II assay (as used previously) allowed us to determine whether these new conjugates (previously described compound A and novel compound 4 of the present invention) have the ability to inhibit Topo II by preventing Topo IIa from decatenating (i.e., disentangling) kinetoplast DNA (kDNA).
A negative image of agarose gel electrophoresis is visualized under UV light. Drugs were incubated with kDNA (200 ng) and Topo IIa (4 units) in reaction buffer prior to loading onto the gel. Neg. Control (−): kDNA only; Pos. Control (+): kDNA+Topo II (without conjugate); Inhibitory Control (B, rightmost lane): Berenil (50 μM). All other lanes contain the corresponding conjugate at the listed μM concentrations. Positive Topo II activity is shown by the formation of nicked open circular (NOC) DNA (middle band) and covalently closed circular (CCC) DNA (bottom band). Inhibition is shown by the negative activity of Topo II where kDNA (top band) is not decatenated and remains in the well.
When kDNA was not incubated with drug and Topo II (negative control), no migration occurred on the gel and the kDNA remained in the well as expected, which was indicated by the single top band visualized in the well. When kDNA was incubated with Topo II in the absence of drug, the top band in the well disappeared completely while two bands representing the two decatenated products could be seen.

[6] = test system: L1210 cells; experiment: L1210 cytotoxicity in presence of DFMO; type: cell-based, mouse; details: in the presence of DFMO
Procedure: as §3, §1

Topoisomerase IIalpha (Topo IIa), sequence (P11388 whole entry): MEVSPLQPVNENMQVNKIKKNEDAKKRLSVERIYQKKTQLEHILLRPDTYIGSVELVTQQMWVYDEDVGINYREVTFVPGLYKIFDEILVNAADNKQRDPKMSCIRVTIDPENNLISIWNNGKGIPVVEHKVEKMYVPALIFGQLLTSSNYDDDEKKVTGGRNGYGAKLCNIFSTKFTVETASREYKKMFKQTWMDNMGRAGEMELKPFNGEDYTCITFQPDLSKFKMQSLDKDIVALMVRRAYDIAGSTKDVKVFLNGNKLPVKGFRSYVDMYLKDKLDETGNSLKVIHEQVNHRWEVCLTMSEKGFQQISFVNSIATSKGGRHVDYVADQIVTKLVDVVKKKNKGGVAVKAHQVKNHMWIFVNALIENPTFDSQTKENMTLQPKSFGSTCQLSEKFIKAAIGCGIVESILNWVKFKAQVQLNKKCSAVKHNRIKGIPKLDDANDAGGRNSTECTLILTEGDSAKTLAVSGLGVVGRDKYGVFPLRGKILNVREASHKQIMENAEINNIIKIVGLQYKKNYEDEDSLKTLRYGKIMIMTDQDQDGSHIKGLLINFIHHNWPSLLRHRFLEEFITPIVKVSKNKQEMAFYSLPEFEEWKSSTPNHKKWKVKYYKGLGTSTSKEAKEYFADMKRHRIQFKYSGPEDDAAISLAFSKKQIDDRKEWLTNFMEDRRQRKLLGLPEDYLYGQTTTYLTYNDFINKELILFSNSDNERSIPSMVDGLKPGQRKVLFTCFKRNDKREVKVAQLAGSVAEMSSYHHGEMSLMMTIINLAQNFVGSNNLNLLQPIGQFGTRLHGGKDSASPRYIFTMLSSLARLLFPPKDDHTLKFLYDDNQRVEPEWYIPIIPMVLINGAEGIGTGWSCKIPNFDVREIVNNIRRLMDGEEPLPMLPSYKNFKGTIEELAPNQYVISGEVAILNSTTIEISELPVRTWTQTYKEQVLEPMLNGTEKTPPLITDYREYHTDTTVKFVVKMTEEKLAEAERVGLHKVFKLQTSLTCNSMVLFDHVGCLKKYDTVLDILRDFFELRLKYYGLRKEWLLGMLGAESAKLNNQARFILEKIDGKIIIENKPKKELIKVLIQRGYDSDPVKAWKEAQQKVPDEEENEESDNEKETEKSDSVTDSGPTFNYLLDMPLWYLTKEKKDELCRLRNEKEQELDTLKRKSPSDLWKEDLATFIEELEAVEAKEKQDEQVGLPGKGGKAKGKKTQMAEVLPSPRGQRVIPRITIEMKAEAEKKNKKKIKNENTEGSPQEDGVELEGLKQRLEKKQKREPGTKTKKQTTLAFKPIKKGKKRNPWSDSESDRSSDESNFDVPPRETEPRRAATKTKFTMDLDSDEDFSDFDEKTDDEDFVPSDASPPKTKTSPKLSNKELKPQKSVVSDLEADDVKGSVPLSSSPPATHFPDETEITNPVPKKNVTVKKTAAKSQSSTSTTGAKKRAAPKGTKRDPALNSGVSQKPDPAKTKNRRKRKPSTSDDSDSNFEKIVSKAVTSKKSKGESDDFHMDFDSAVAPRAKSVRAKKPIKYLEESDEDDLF

| SMILES | Ki [1] [nM] | Topo II inhibition (kDNA remaining undecatenated) ([5]; 5 μM, kDNA 200 ng, Topo IIa 4 units) | Type of Topo II inhibition ([5]; inhibition increased with drug concentration) | Topo II inhibition (kDNA remaining in well) ([5]; 50 μM, inhibitory control) | IC50 [2] [nM] | CHOMG/CHO IC50 Ratio [2] | IC50 [3] [nM] | IC50 [4] [nM] | CHOMG/CHO IC50 Ratio ([2]; Hydrochloride salt) | IC50 ([6]; Mus musculus, L1210) [nM] | IC50 [6] [nM] |
| --- | --- | --- | --- | --- | --- | --- | --- | --- | --- | --- | --- |
| Cl.NCCCCNCCCCNCc1ccc(CNCCCCNCCCCN)c2ccccc12 [Compound 7, N-(4-Amino-butyl)-N′-(4-{[4-(4-amino-butylamino)-butylamino]-methyl}-naphthalen-1-ylmethyl)-butane-1,4-diamine, Hydrochloride salt] | 170 ± 20 | – | – | – | 120 ± 30 | >833 | > 100000 | 250 ± 80 | – | – | – |
| Cl.NCCCCNCCCCNCc1c2ccccc2c(CNCCCCNCCCCN)c2ccccc12 [Compound 4, N-(4-Amino-butyl)-N′-(10-{[4-(4-amino-butylamino)-butylamino]-methyl}-anthracen-9-ylmethyl)-butane-1,4-diamine, Hydrochloride salt] | 390 ± 50 | good inhibition | catalytic Topo-II inhibitors | – | 45 ± 3 | – | > 100000 | 780 ± 70 | >2222 | 220 ± 80 | – |
| CC(=O)NCC(=O)O.CC(=O)NCC(=O)O.N=C(N)c1ccc(N=NNc2ccc(C(=N)N)cc2)cc1 [Berenil, reference compound] | – | – | – | good inhibition | – | – | – | – | – | – | – |

Second part, led by results:

| Ki [1] [nM] | Topo II inhibition (kDNA remaining undecatenated) ([5]; 5 μM, kDNA 200 ng, Topo IIa 4 units) | Type of Topo II inhibition ([5]; inhibition increased with drug concentration) | Topo II inhibition (kDNA remaining in well) ([5]; 50 μM, inhibitory control) | SMILES | IC50 [2] [nM] | CHOMG/CHO IC50 Ratio [2] | IC50 [3] [nM] | IC50 [4] [nM] | CHOMG/CHO IC50 Ratio ([2]; Hydrochloride salt) | IC50 ([6]; Mus musculus, L1210) [nM] | IC50 [6] [nM] |
| --- | --- | --- | --- | --- | --- | --- | --- | --- | --- | --- | --- |
| 490 ± 20 | – | – | – | NCCCCNCCCCNCc1cc(CNCCCCNCCCCN)cc(CN(CCCCN)CCCCN)c1 [Compound 15, N-(4-Amino-butyl)-N-(3,5-bis-{[4-(4-amino-butylamino)-butylamino]-methyl}-benzyl)-butane-1,4-diamine, nona-Hydrochloride Salt] | > 500000 | – | > 500000 | 122000 ± 8100 | – | – | 49300 ± 10000 |
| 520 ± 110 | – | – | – | Cl.NCCCCNCCCCNCc1ccc(CNCCCCNCCCCN)cc1 [Compound 10, N-(4-Amino-butyl)-N′-(4-{[4-(4-amino-butylamino)-butylamino]-methyl}-benzyl)-butane-1,4-diamine, Hydrochloride salt] | 74 ± 10 | 677 | 50200 ± 3800 | 160 ± 10 | – | 360 ± 30 | – |
